According to the supplement of paper PMC10307832:

Legend:
MK-2206 = compound: NC1(c2ccc(-c3nc4ccn5c(=O)[nH]nc5c4cc3-c3ccccc3)cc2)CCC1 [MK-2206]; assay: relative viability (nuclei count vs DMSO), 5 days (fraction); higher = more cells survive
In short: (§1)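 Hoechst staining, done together with fixation and permeabilisation, marked nuclei for 4× imaging and MetaXpress counting. This followed 5 days without medium change after lung cancer cell lines, kept overnight at 37 °C in 1536-well plates, were pinned with five library-drug doses (not always all listed) spaced by √10 on vehicle-anchored plates. Viability is the ratio of treated-well to vehicle-well nuclei, expressed as a median across plates. Plates passed only at control CV below 25% with at least one doubling.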

Pictilisib = compound: CS(=O)(=O)N1CCN(Cc2cc3nc(-c4cccc5[nH]ncc45)nc(N4CCOCC4)c3s2)CC1 [Pictilisib]; assay: as above
In short: as §1

Q: Which results are given for NCI-H2228?
A: relative viability (MK-2206; 0.01 µM): 0.871; relative viability (MK-2206; 0.03162 µM): 0.845; relative viability (MK-2206; 0.3162 µM): 0.658; relative viability (MK-2206; 1 µM): 0.517; relative viability (Pictilisib; 0.02 µM): 0.962; relative viability (Pictilisib; 0.06325 µM): 0.998; relative viability (Pictilisib; 0.6325 µM): 0.742; relative viability (Pictilisib; 1 µM, anchor plate): 0.413; relative viability (Pictilisib; 2 µM): 0.361

Q: For NCI-H2342, which relative viability (MK-2206; 0.01 µM) is on record?
A: Its relative viability is 1.05.

Q: What about the relative viability (MK-2206; 0.03162 µM) of the same cell line?
A: The relative viability was 0.959.

Q: What about the relative viability (MK-2206; 0.3162 µM) of the same cell line?
A: The relative viability was 0.892.

Q: What about the relative viability (MK-2206; 1 µM) of the same cell line?
A: The relative viability was 0.815.

Q: And the relative viability (Pictilisib; 0.02 µM)?
A: Its relative viability is 0.949.

Q: And the relative viability (Pictilisib; 0.06325 µM)?
A: Its relative viability is 0.931.

Q: What about the relative viability (Pictilisib; 0.6325 µM) of the same cell line?
A: The relative viability was 0.838.

Q: What about the relative viability (Pictilisib; 2 µM) of the same cell line?
A: The relative viability was 0.531.

Q: Which relative viability (MK-2206; 0.01 µM) does the source give for NCI-H2347 here?
A: Its relative viability is 0.952.

Q: What about the relative viability (MK-2206; 0.03162 µM) of the same cell line?
A: Its relative viability is 0.997.

Q: And the relative viability (MK-2206; 0.3162 µM)?
A: The relative viability was 0.997.

Q: What about the relative viability (MK-2206; 1 µM) of the same cell line?
A: Its relative viability is 0.945.

Q: And the relative viability (Pictilisib; 0.02 µM)?
A: Its relative viability is 1.02.

Q: What about the relative viability (Pictilisib; 0.06325 µM) of the same cell line?
A: Its relative viability is 1.05.

Q: And the relative viability (Pictilisib; 0.6325 µM)?
A: The relative viability was 0.934.

Q: What about the relative viability (Pictilisib; 1 µM, anchor plate) of the same cell line?
A: Its relative viability is 0.644.

Q: What about the relative viability (Pictilisib; 2 µM) of the same cell line?
A: Its relative viability is 0.708.

Q: Which results are given for NCI-H2405?
A: relative viability (MK-2206; 0.01 µM): 1.02; relative viability (MK-2206; 0.03162 µM): 1.03; relative viability (MK-2206; 0.3162 µM): 0.968; relative viability (MK-2206; 1 µM): 0.839; relative viability (Pictilisib; 0.02 µM): 1.07; relative viability (Pictilisib; 0.06325 µM): 0.977; relative viability (Pictilisib; 0.6325 µM): 0.851; relative viability (Pictilisib; 1 µM, anchor plate): 0.433; relative viability (Pictilisib; 2 µM): 0.451

Q: How did the relative viability (MK-2206; 0.01 µM) turn out when NCI-H3122 was run?
A: The relative viability was 1.02.

Q: And the relative viability (MK-2206; 0.03162 µM)?
A: The relative viability was 1.03.

Q: What about the relative viability (MK-2206; 0.3162 µM) of the same cell line?
A: Its relative viability is 1.05.

Q: And the relative viability (MK-2206; 1 µM)?
A: The relative viability was 0.984.

Q: What about the relative viability (Pictilisib; 0.02 µM) of the same cell line?
A: The relative viability was 1.01.

Q: What about the relative viability (Pictilisib; 0.06325 µM) of the same cell line?
A: The relative viability was 1.04.

Q: And the relative viability (Pictilisib; 0.6325 µM)?
A: The relative viability was 0.954.

Q: What about the relative viability (Pictilisib; 1 µM, anchor plate) of the same cell line?
A: Its relative viability is 0.644.

Q: And the relative viability (Pictilisib; 2 µM)?
A: Its relative viability is 0.511.

Q: For PC-3 [JPC-3], which relative viability (MK-2206; 0.01 µM) is on record?
A: The relative viability was 1.02.

Q: What about the relative viability (MK-2206; 0.03162 µM) of the same cell line?
A: Its relative viability is 1.04.

Q: And the relative viability (MK-2206; 0.3162 µM)?
A: The relative viability was 1.11.

Q: What about the relative viability (MK-2206; 1 µM) of the same cell line?
A: Its relative viability is 1.07.

Q: And the relative viability (Pictilisib; 0.02 µM)?
A: Its relative viability is 1.06.

Q: What about the relative viability (Pictilisib; 0.06325 µM) of the same cell line?
A: The relative viability was 1.13.

Q: What about the relative viability (Pictilisib; 0.6325 µM) of the same cell line?
A: The relative viability was 1.1.

Q: And the relative viability (Pictilisib; 1 µM, anchor plate)?
A: Its relative viability is 0.735.

Q: And the relative viability (Pictilisib; 2 µM)?
A: Its relative viability is 0.856.

Q: With PC-14 as the cell line, how does the relative viability (MK-2206; 0.01 µM) read?
A: Its relative viability is 0.937.

Q: What about the relative viability (MK-2206; 0.03162 µM) of the same cell line?
A: The relative viability was 1.02.

Q: What about the relative viability (MK-2206; 0.3162 µM) of the same cell line?
A: The relative viability was 0.991.

Q: What about the relative viability (MK-2206; 1 µM) of the same cell line?
A: The relative viability was 1.

Q: What about the relative viability (Pictilisib; 0.02 µM) of the same cell line?
A: The relative viability was 1.1.

Q: What about the relative viability (Pictilisib; 0.06325 µM) of the same cell line?
A: Its relative viability is 1.14.

Q: And the relative viability (Pictilisib; 0.6325 µM)?
A: Its relative viability is 0.994.

Q: What about the relative viability (Pictilisib; 1 µM, anchor plate) of the same cell line?
A: The relative viability was 0.672.

Q: And the relative viability (Pictilisib; 2 µM)?
A: Its relative viability is 0.703.

Q: With RERF-LC-KJ as the cell line, how does the relative viability (MK-2206; 0.01 µM) read?
A: Its relative viability is 0.943.

Q: What about the relative viability (MK-2206; 0.03162 µM) of the same cell line?
A: The relative viability was 0.997.

Q: What about the relative viability (MK-2206; 0.3162 µM) of the same cell line?
A: Its relative viability is 0.854.

Q: What about the relative viability (MK-2206; 1 µM) of the same cell line?
A: The relative viability was 0.919.

Q: What about the relative viability (Pictilisib; 0.02 µM) of the same cell line?
A: Its relative viability is 0.974.

Q: And the relative viability (Pictilisib; 0.06325 µM)?
A: Its relative viability is 0.944.

Q: What about the relative viability (Pictilisib; 0.6325 µM) of the same cell line?
A: The relative viability was 0.807.

Q: And the relative viability (Pictilisib; 1 µM, anchor plate)?
A: Its relative viability is 0.565.

Q: What about the relative viability (Pictilisib; 2 µM) of the same cell line?
A: Its relative viability is 0.575.

Q: Which results are given for SK-LU-1?
A: relative viability (MK-2206; 0.01 µM): 1.09; relative viability (MK-2206; 0.03162 µM): 1.05; relative viability (MK-2206; 0.3162 µM): 1.1; relative viability (MK-2206; 1 µM): 0.944; relative viability (Pictilisib; 0.02 µM): 1.06; relative viability (Pictilisib; 0.06325 µM): 0.963; relative viability (Pictilisib; 0.6325 µM): 0.933; relative viability (Pictilisib; 1 µM, anchor plate): 0.534; relative viability (Pictilisib; 2 µM): 0.678

Q: Which results are given for SK-MES-1?
A: relative viability (MK-2206; 0.01 µM): 0.959; relative viability (MK-2206; 0.03162 µM): 1.02; relative viability (MK-2206; 0.3162 µM): 0.954; relative viability (MK-2206; 1 µM): 0.887; relative viability (Pictilisib; 0.02 µM): 1.04; relative viability (Pictilisib; 0.06325 µM): 1.01; relative viability (Pictilisib; 0.6325 µM): 0.778; relative viability (Pictilisib; 1 µM, anchor plate): 0.392; relative viability (Pictilisib; 2 µM): 0.365

Q: What does the source list for SW 900?
A: relative viability (MK-2206; 0.01 µM): 0.862; relative viability (MK-2206; 0.03162 µM): 0.731; relative viability (MK-2206; 0.3162 µM): 0.866; relative viability (MK-2206; 1 µM): 0.629; relative viability (Pictilisib; 0.02 µM): 1.02; relative viability (Pictilisib; 0.06325 µM): 0.93; relative viability (Pictilisib; 0.6325 µM): 0.632; relative viability (Pictilisib; 2 µM): 0.565

Q: With SW 1573 as the cell line, how does the relative viability (MK-2206; 0.01 µM) read?
A: Its relative viability is 0.997.

Q: What about the relative viability (MK-2206; 0.03162 µM) of the same cell line?
A: Its relative viability is 1.03.

Q: And the relative viability (MK-2206; 0.3162 µM)?
A: The relative viability was 0.773.

Q: What about the relative viability (MK-2206; 1 µM) of the same cell line?
A: Its relative viability is 0.782.

Q: And the relative viability (Pictilisib; 0.02 µM)?
A: The relative viability was 0.966.

Q: And the relative viability (Pictilisib; 0.06325 µM)?
A: Its relative viability is 0.958.

Q: And the relative viability (Pictilisib; 0.6325 µM)?
A: The relative viability was 0.768.

Q: And the relative viability (Pictilisib; 1 µM, anchor plate)?
A: The relative viability was 0.487.

Q: And the relative viability (Pictilisib; 2 µM)?
A: The relative viability was 0.403.
